According to patent US20110281911A1, “NOVEL FORMS OF EPERISONE” (Bionevia Pharmaceuticals, Inc., priority 2008, published 2011):
Where a name gives a salt, the structure may show the parent alone.

Experiment: Solubility in acetonitrile, calculated based on the total solvent used to give a solution
Format: physicochemical
Details: organic solvent or mixture, thermodynamic from solid

CCc1ccc(C(=O)C(C)CN2CCCCC2)cc1 (single isomer, unassigned) [substantially enantiopure crystalline eperisone hydrochloride, eperisone hydrochloride]
solubility: > 11 mg/mL
